# According to US11053242B2, “[9,10-dimethoxy-3-(2-methylpropyl)-1H,2H,3H,4H,6H,7H,11BH-pyrido-[2,1-a]isoquinolin-2-yl]methanol and compounds, compositions and methods relating thereto” (Neurocrine Biosciences, Inc., priority 2015, dated 2021):
# Biological target: VMAT2 (human platelet homogenate) (Homo sapiens (Human), UniProt Q05940)
# Experiment: Human VMAT2 Ki, slightly modified competition binding procedure (Table 11);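 further: competition binding with 90 min incubation at 25 °C, after which filter-retained radioligand was measured by scintillation counting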
# Conditions: 10 nM 3H-dihydrotetrabenazine
# Procedure: Following incubation at 25° C. for 90 minutes, bound radioligand was collected by rapid filtration onto GF/B glass fiber filters using a Unifilter-96 Harvester (PerkinElmer). Filter plates were pre-treated with 0.1% polyethylenimine and allowed to dry overnight, and following harvesting the filter plates were washed with 800 d VMAT2 binding buffer. Bound radioligand was quantified by scintillation counting using a Topcount NXT (PerkinElmer).
# VMAT2 (human platelet homogenate), sequence (Q05940 whole entry): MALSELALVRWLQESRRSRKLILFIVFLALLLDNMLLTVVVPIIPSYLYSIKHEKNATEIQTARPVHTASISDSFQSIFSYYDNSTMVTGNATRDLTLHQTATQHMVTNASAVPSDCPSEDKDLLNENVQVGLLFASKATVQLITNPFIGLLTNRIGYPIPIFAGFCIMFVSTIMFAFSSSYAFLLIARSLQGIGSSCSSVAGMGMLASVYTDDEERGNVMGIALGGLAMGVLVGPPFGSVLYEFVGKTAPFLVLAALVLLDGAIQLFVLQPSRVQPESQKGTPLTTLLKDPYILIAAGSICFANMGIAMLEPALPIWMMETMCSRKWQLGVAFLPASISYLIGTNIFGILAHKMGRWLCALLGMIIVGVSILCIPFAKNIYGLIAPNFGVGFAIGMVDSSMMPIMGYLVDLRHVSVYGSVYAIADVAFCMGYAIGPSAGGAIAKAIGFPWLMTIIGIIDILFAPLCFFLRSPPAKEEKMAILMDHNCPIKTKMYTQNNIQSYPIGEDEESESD
row,SMILES,Ki
1,"COc1cc2c(cc1OC)[C@H]1C[C@@H](COC(=O)C3NCCc4ccccc43)[C@H](CC(C)C)CN1CC2 (stereo partly drawn) [Compound 4-21, [(2R,3S,11bR)-9,10-dimethoxy-3-(2-methylpropyl)-1H,2H,3H,4H,6H,7H,11bH-pyrido[2,1-a]isoquinolin-2-yl]methyl 1,2,3,4-tetrahydroisoquinoline-1-carboxylate]",0.01 to 0.5 µM
2,"COc1cc2c(cc1OC)[C@H]1C[C@@H](COC(=O)[C@H](N)c3ccc(C(F)(F)F)cc3)[C@H](CC(C)C)CN1CC2 [Compound 4-30, [(2R,3S,11bR)-9,10-dimethoxy-3-(2-methylpropyl)-1H,2H,3H,4H,6H,7H,11bH-pyrido[2,1-a]isoquinolin-2-yl]methyl (2R)-2-amino-2-[4-(trifluoromethyl)phenyl]acetate]",0.01 to 0.5 µM
3,"COc1cc2c(cc1OC)[C@H]1C[C@@H](COC(=O)C(N)c3ccccc3OC)[C@H](CC(C)C)CN1CC2 (stereo partly drawn) [Compound 4-19, [(2R,3S,11bR)-9,10-dimethoxy-3-(2-methylpropyl)-1H,2H,3H,4H,6H,7H,11bH-pyrido[2,1-a]isoquinolin-2-yl]methyl 2-amino-2-(2-methoxyphenyl)acetate]",0.01 to 0.5 µM
4,"COc1cc2c(cc1OC)[C@H]1C[C@@H](COC(=O)CCN3CCCCC3)[C@H](CC(C)C)CN1CC2 [Compound 2-19, [(2R,3S,11bR)-9,10-dimethoxy-3-(2-methylpropyl)-1H,2H,3H,4H,6H,7H,11bH-pyrido[2,1-a]isoquinolin-2-yl]methyl 3-(piperidin-1-yl)propanoate]",< 0.01 µM
5,"COc1cc2c(cc1OC)[C@H]1C[C@@H](COC(=O)[C@@H]3CCN(Cc4ccccc4)C3)[C@H](CC(C)C)CN1CC2 [Compound 2-6, [(2R,3S,11bR)-9,10-dimethoxy-3-(2-methylpropyl)-1H,2H,3H,4H,6H,7H,11bH-pyrido[2,1-a]isoquinolin-2-yl]methyl (3R)-1-benzylpyrrolidine-3-carboxylate]",< 0.01 µM
6,"COc1cc2c(cc1OC)[C@H]1C[C@@H](COC(=O)CCN(C)C)[C@H](CC(C)C)CN1CC2 [Compound 2-7, [(2R,3S,11bR)-9,10-dimethoxy-3-(2-methylpropyl)-1H,2H,3H,4H,6H,7H,11bH-pyrido[2,1-a]isoquinolin-2-yl]methyl 3-(dimethylamino)propanoate]",< 0.01 µM
7,"CCCCCCOCC1CC2c3cc(OC)c(OC)cc3CCN2CC1CC(C)C (centres unmarked) [Compound 10-3, 2-[(hexyloxy)methyl]-9,10-dimethoxy-3-(2-methylpropyl)-1H,2H,3H,4H,6H,7H,11bH-pyrido[2,1-a]isoquinoline]",0.01 to 0.5 µM
8,"CCN(CC)CCC(=O)OC[C@@H]1C[C@@H]2c3cc(OC)c(OC)cc3CCN2C[C@H]1CC(C)C [Compound 2-32, [(2R,3S,11bR)-9,10-dimethoxy-3-(2-methylpropyl)-1H,2H,3H,4H,6H,7H,11bH-pyrido[2,1-a]isoquinolin-2-yl]methyl 3-(diethylamino)propanoate]",< 0.01 µM
9,"COc1cc2c(cc1OC)[C@H]1C[C@@H](COC(=O)C3C(C)(C)C3(C)C)[C@H](CC(C)C)CN1CC2 [Compound 2-38, [(2R,3S,11bR)-9,10-dimethoxy-3-(2-methylpropyl)-1H,2H,3H,4H,6H,7H,11bH-pyrido[2,1-a]isoquinolin-2-yl]methyl 2,2,3,3-tetramethylcyclopropane-1-carboxylate]",0.01 to 0.5 µM
10,"COc1cc2c(cc1OC)[C@H]1C[C@@H](COC(=O)CN3C[C@@H](C)O[C@@H](C)C3)[C@H](CC(C)C)CN1CC2 [Compound 2-8, [(2R,3S,11bR)-9,10-dimethoxy-3-(2-methylpropyl)-1H,2H,3H,4H,6H,7H,11bH-pyrido[2,1-a]isoquinolin-2-yl]methyl 2-[(2R,6S)-2,6-dimethylmorpholin-4-yl]acetate]",< 0.01 µM
11,"COc1cc2c(cc1OC)[C@H]1C[C@@H](COC(=O)N(C)C)[C@H](CC(C)C)CN1CC2 [Compound 5-29, [(2R,3S,11bR)-9,10-dimethoxy-3-(2-methylpropyl)-1H,2H,3H,4H,6H,7H,11bH-pyrido[2,1-a]isoquinolin-2-yl]methyl N,N-dimethylcarbamate]",0.01 to 0.5 µM
12,"COc1cc2c(cc1OC)[C@H]1C[C@@H](COC(=O)N[C@H](C)C(=O)O)[C@H](CC(C)C)CN1CC2 [Compound 5-45, (2R)-2-[({[(2R,3S,11bR)-9,10-dimethoxy-3-(2-methylpropyl)-1H,2H,3H,4H,6H,7H,11bH-pyrido[2,1-a]isoquinolin-2-yl]methoxy}carbonyl)amino]propanoic acid]",> 0.5 µM
13,"COc1cc2c(cc1OC)[C@H]1C[C@@H](COC(=O)[C@@H]3CC(=O)NC(=O)N3)[C@H](CC(C)C)CN1CC2 [Compound 2-31, [(2R,3S,11bR)-9,10-dimethoxy-3-(2-methylpropyl)-1H,2H,3H,4H,6H,7H,11bH-pyrido[2,1-a]isoquinolin-2-yl]methyl (4S)-2,6-dioxo-1,3-diazinane-4-carboxylate]",< 0.01 µM
14,"COc1cc2c(cc1OC)[C@H]1CC(COC(=O)[C@@H](N)C(C)C)[C@H](CC(C)C)CN1CC2 (stereo partly drawn) [Compound 4-12, [(3S,11bR)-9,10-dimethoxy-3-(2-methylpropyl)-1H,2H,3H,4H,6H,7H,11bH-pyrido[2,1-a]isoquinolin-2-yl]methyl (2S)-2-amino-3-methylbutanoate]",< 0.01 µM
15,"COc1cc2c(cc1OC)[C@H]1C[C@@H](COC(=O)CC(C)(C)n3cccc3)[C@H](CC(C)C)CN1CC2 [Compound 2-28, [(2R,3S,11bR)-9,10-dimethoxy-3-(2-methylpropyl)-1H,2H,3H,4H,6H,7H,11bH-pyrido[2,1-a]isoquinolin-2-yl]methyl 3-methyl-3-(1H-pyrrol-1-yl)butanoate]",0.01 to 0.5 µM
16,"COc1cc2c(cc1OC)[C@H]1C[C@@H](COC(=O)CCn3c(=O)[nH]c4ccccc4c3=O)[C@H](CC(C)C)CN1CC2 [Compound 2-3, [(2R,3S,11bR)-9,10-dimethoxy-3-(2-methylpropyl)-1H,2H,3H,4H,6H,7H,11bH-pyrido[2,1-a]isoquinolin-2-yl]methyl 3-(2,4-dioxo-1,2,3,4-tetrahydroquinazolin-3-yl)propanoate]",< 0.01 µM
17,"COc1cc2c(cc1OC)[C@H]1C[C@@H](COC(=O)C(C)(C)C)[C@H](CC(C)C)CN1CC2 [Compound 2-17, [(2R,3S,11bR)-9,10-dimethoxy-3-(2-methylpropyl)-1H,2H,3H,4H,6H,7H,11bH-pyrido[2,1-a]isoquinolin-2-yl]methyl 2,2-dimethylpropanoate]",0.01 to 0.5 µM
18,"COc1cc2c(cc1OC)[C@H]1C[C@@H](COC(=O)N3CCN(C4CCCCC4)CC3)[C@H](CC(C)C)CN1CC2 [Compound 5-18, [(2R,3S,11bR)-9,10-dimethoxy-3-(2-methylpropyl)-1H,2H,3H,4H,6H,7H,11bH-pyrido[2,1-a]isoquinolin-2-yl]methyl 4-cyclohexylpiperazine-1-carboxylate]",< 0.01 µM
19,"COc1cc2c(cc1OC)[C@H]1C[C@@H](COC(=O)N3CCNC(=O)C3C)[C@H](CC(C)C)CN1CC2 (stereo partly drawn) [Compound 5-21, [(2R,3S,11bR)-9,10-dimethoxy-3-(2-methylpropyl)-1H,2H,3H,4H,6H,7H,11bH-pyrido[2,1-a]isoquinolin-2-yl]methyl 2-methyl-3-oxopiperazine-1-carboxylate]",< 0.01 µM
20,"COc1cc2c(cc1OC)[C@H]1C[C@@H](COC(=O)C3CCCCC3C(=O)O)[C@H](CC(C)C)CN1CC2 (stereo partly drawn) [Compound 3-5, 2-({[(2R,3S,11bR)-9,10-dimethoxy-3-(2-methylpropyl)-1H,2H,3H,4H,6H,7H,11bH-pyrido[2,1-a]isoquinolin-2-yl]methoxy}carbonyl)cyclohexane-1-carboxylic acid]",0.01 to 0.5 µM
